In one assay the test system is LAMP reaction. Kind of assay: LAMP amplification activity in the presence of lytic agents / lytic peptides. It is filed as biochemical. The note with it: for inhibiting effect on the LAMP amplification efficiency: 5 μM antimicrobial peptide in LAMP reaction. As to the method: Loop-mediated isothermal amplification activity in the presence of different lytic agents. Percentage of amplification activity in the presence of 0.1% polyethylene glycol p-(1,1,3,3-tetramethylbutyl)-phenyl ether, 0.1 mg/ml lysozyme (with or without 0.1% polyethylene glycol p-(1,1,3,3-tetramethylbutyl)-phenyl ether or 1 mM EDTA) or alkaline lysis components.
Loop-mediated isothermal amplification activity in the presence of different lytic peptides. Percentage of amplification activity in the presence of 5 μM antimicrobial peptides.

Another assay concerns E. coli. Briefly: Loop-mediated isothermal amplification directly from E. coli cell lysates after pretreatment of urine spiked E. coli. Format: cell-based, Escherichia coli.

Consider six molecules from US20230160021A1, “METHOD FOR THE DETECTION OF A SEXUALLY TRANSMITTED INFECTIOUS PATHOGEN” (SELFDIAGNOSTICS DEUTSCHLAND GMBH, priority 2016, published 2023).

Description for E. coli: Loop-mediated isothermal amplification directly from E. coli cell lysates. Isothermal amplification after pretreatment of urine spiked E. coli with different lysate preparation techniques. Lysozyme was used at 1 mg/ml concentration, polyethylene glycol p-(1,1,3,3-tetramethylbutyl)-phenyl ether at 1% and peptides at 50 μM concentration for the biological sample treatment. All sample pretreatments were performed for 5 min at RT° C. (except for heat treatment that was incubated at 95° C.).
A biological sample containing E. coli bacteria (urine sample in FIG. 6) is treated with 50 μM antimicrobial peptide belonging to but not limited to cecropin group (Cecropin P1 or SB-37 in FIG. 6) for 5 min at RT° C. 5 μl of the urine sample is added directly to the loop-mediated amplification reaction, so that final reaction volume is 50 μl and final components concentration as follows: 0.2 μM F3 primer, 0.2 μM B3 primer, 1.6 μM BIP primer, 1.6 μM FIP primer, 0.8 μM LF primer, 0.8 μM LB primer, 8 mM MgSO4, 1.4 mM dNTP, 0.8M betain, 20 mM Tris-HCl pH 8.8, 10 mM KCl, 10 mM (NH4)2SO4, 0.1% (v/v) Tween 20 and 16 units of Bsm polymerase.

Consider `CC[C@H](C)[C@H](NC(=O)CN)C(=O)NCC(=O)N[C@@H](C)C(=O)N[C@H](C(=O)N[C@@H](CC(C)C)C(=O)N[C@@H](CCCCN)C(=O)N[C@H](C(=O)N[C@@H](CC(C)C)C(=O)N[C@H](C(=O)N[C@H](C(=O)NCC(=O)N[C@@H](CC(C)C)C(=O)N1CCC[C@H]1C(=O)N[C@@H](C)C(=O)N[C@@H](CC(C)C)C(=O)N[C@H](C(=O)N[C@@H](CO)C(=O)N[C@@H](Cc1c[nH]c2ccccc12)C(=O)N[C@H](C(=O)N[C@@H](CCCCN)C(=O)N[C@@H](CCCNC(=N)N)C(=O)N[C@@H](CCCCN)C(=O)N[C@@H](CCCNC(=N)N)C(=O)N[C@@H](CCC(N)=O)C(=O)N[C@@H](CCC(N)=O)C(N)=O)[C@@H](C)CC)[C@@H](C)CC)[C@@H](C)O)[C@@H](C)O)C(C)C)C(C)C` [melittin], for which the “inhibiting effect on the LAMP amplification efficiency” value (from here on “inhibiting effect”) with LAMP reaction is reported as “inhibiting effect comparable to alkaline lysis components”. As to Bombolitin III, in the assay on LAMP reaction, the “inhibiting effect” value was “only mild inhibition”. For “Cecropin P1 (SWLSKTAKKLENSAKKRISEGIAIAIQGGPR; listed as Ascaris suum)”, in the assay on E. coli (50 μM peptide, 5 min at RT, urine spiked E. coli, LAMP (FIG. 6)), the “increase of the target DNA available for the isothermal amplification” value is reported as 6 times. Further, in the assay with E. coli (urine sample, peptide pre-treatment (FIG. 6)), the “effect of sample pre-treatment on isothermal amplification efficiency” value was “enhancing effect”. Further, the “inhibiting effect” value with LAMP reaction is listed as “lowest inhibitory effect”; in the assay with LAMP reaction (listed as P1), “only mild inhibition”.

MSI-78: in the assay on LAMP reaction, the “inhibiting effect” value is reported as “quite severe inhibiting effect”.

Take MSI-594: in the assay with LAMP reaction, the “inhibiting effect” value is given as “quite severe inhibiting effect”.

In the case of lysozyme, the “effect on the amplification efficiency” value with LAMP reaction (lysozyme alone, 0.1 mg/ml in LAMP reaction) is “very modest effect”. For the same molecule, the isothermal amplification efficiency result with LAMP reaction (lysozyme in combination with lysis enhancing agents (polyethylene glycol p-(1,1,3,3-tetramethylbutyl)-phenyl ether or EDTA)) was “significantly reduced”.
